Active and inactive are the calls of the source. The rule behind the calls is not given here.
How the values were obtained:
[1] = target: Smoothened (Mus musculus) (UniProt P56726); assay: Inhibition of Smo-mediated Hh signaling in mouse Shh-light2 cells at 3 uM by luciferase reporter gene assay; settings: Shh Light II
[2] = tested on: C3H 10T1/2; assay: Inhibition of SAG-induced differentiation of mouse mesenchymal pluripotent C3H10T1/2 cells to alkaline phosphatase positive oeseoblasts at 10 uM after 6 days; settings: C3H 10T1/2, 6 days
[3] = tested on: C3H 10T1/2; assay: Inhibition of SAG-induced differentiation of mouse mesenchymal pluripotent C3H10T1/2 cells to alkaline phosphatase positive oeseoblasts after 6 days; settings: C3H 10T1/2, 6 days
[4] = target: Smoothened (Mus musculus) (UniProt P56726); assay: Inhibition of Smo-mediated Hh signaling in mouse Shh-light2 cells at 0.3 uM by luciferase reporter gene assay; settings: Shh Light II
[5] = target: Smoothened (Mus musculus) (UniProt P56726); assay: Inhibition of Smo-mediated Hh signaling in mouse Shh-light2 cells by luciferase reporter gene assay

Sequence of Smoothened (Mus musculus) (P56726 whole entry, looked up): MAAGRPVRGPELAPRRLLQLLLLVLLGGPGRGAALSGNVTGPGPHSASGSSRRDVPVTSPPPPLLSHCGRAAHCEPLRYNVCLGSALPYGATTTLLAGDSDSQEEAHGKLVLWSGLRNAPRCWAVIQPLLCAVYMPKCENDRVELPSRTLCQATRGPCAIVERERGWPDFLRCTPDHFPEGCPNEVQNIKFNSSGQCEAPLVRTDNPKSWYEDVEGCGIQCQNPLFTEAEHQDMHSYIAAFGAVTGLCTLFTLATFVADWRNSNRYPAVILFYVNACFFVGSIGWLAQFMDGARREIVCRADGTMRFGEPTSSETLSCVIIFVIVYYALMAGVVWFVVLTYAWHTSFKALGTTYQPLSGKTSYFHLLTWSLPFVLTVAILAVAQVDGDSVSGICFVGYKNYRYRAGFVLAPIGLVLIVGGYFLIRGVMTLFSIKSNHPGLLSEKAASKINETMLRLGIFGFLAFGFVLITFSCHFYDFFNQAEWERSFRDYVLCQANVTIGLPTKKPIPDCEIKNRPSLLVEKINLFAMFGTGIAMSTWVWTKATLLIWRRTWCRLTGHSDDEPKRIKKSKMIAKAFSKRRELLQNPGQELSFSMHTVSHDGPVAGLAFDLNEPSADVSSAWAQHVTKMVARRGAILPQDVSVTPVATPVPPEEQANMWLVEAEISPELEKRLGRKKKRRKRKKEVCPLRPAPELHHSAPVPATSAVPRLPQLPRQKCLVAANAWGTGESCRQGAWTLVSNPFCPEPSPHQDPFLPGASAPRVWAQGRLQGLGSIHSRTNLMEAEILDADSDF

SMILES	inhibition [1]	inhibition at 10 µM [2] [%]	IC50 [3] [nM]	inhibition [4] [%]	IC50 [5] [nM]
COc1ccc(C(=O)Nc2cccc(NC(=S)NC(=O)c3cc(OC)c(OC)c(OC)c3)c2)cc1	93%	85	1600	–	–
CCOc1cc(C(=O)NC(=S)Nc2cccc(NC(=O)c3ccccc3)c2)cc(OCC)c1OCC	100%	–	800	–	–
COc1cc(C(=O)NC(=O)Nc2cccc(NC(=O)c3ccc(Cl)cc3)c2)cc(OC)c1OC	96%	95	–	6	–
COc1cc(C(=O)NC(=S)Nc2cccc(-c3cn4ccccc4n3)c2)cc(OC)c1OC	93%	94	550	–	820
COc1cc(C(=O)NC(=N)Nc2ccc(C)c(NC(=O)c3cccc(-c4ccccc4)c3)c2)cc(OC)c1OC	–	–	260	–	110
COc1cc(C(=O)NC(=O)Nc2cccc(NC(=O)c3ccccc3)c2)cc2c1OCO2	2%	32	–	1	–
COc1cc(C(=O)NC(=S)Nc2ccc(C)c(NC(=O)c3ccccc3)c2)cc(OC)c1OC	100%	99	900	60	–
COc1ccc(C(=O)Nc2cccc(NC(=O)NC(=O)c3cc(OC)c(OC)c(OC)c3)c2)cc1	103%	99	–	40	–
COc1cc(C(=O)NC(=N)Nc2ccc(C)c(NC(=O)c3ccccc3)c2)cc(OC)c1OC	–	–	180	88	–
COc1cccc(C(=O)Nc2cccc(NC(=S)NC(=O)c3cc(OC)c(OC)c(OC)c3)c2)c1	99%	89	2000	–	–
COc1cc(OC)cc(C(=O)NC(=S)Nc2cccc(NC(=O)c3ccccc3)c2)c1	84%	–	1900	–	–
COc1ccc(C(=O)NC(=S)Nc2cccc(NC(=O)c3ccccc3)c2)cc1OC	71%	45	–	–	–
COc1cc(C(=O)NC(=N)Nc2ccc(Cl)c(C(=O)Nc3ccccc3)c2)cc(OC)c1OC	–	–	440	–	160
COc1cc(C(=O)NC(=S)Nc2cccc(NC(=O)Nc3ccc(-c4ccccc4)cc3)c2)cc(OC)c1OC	71%	91	–	–	–
COc1ccc(NC(=S)NC(=O)c2cc(OC)c(OC)c(OC)c2)cc1NC(=O)c1ccccc1	33%	8	–	1	–
COc1cc(C(=O)NC(=N)Nc2cccc(-c3cc4ccccc4[nH]3)c2)cc(OC)c1OC	–	–	180	–	70
COc1cc(C(=O)NC(=S)Nc2cccc(NC(=O)c3cccs3)c2)cc(OC)c1OC	13%	60	–	–	–
COc1cc(C(=O)NC(=S)Nc2cc(NC(=O)c3ccccc3)ccc2F)cc(OC)c1OC	92%	97	–	4	–
COc1cc(C(=O)NC(=O)Nc2cccc(NC(=O)C(C)C)c2)cc(OC)c1OC	62%	99	–	4	–
CCOc1cc(C(=O)NC(=S)Nc2cccc(NC(=O)c3ccccc3)c2)cc(OC)c1OCC	100%	–	800	–	–

SMILES	inhibition [1]	inhibition at 10 µM [2] [%]	IC50 [3] [nM]	inhibition [4] [%]	IC50 [5] [nM]
COc1cc(C(=O)NC(=S)Nc2cccc(NC(=O)C(C)C)c2)cc(OC)c1OC	6%	6	–	–	–
COc1cc(C(=O)NC(=N)Nc2ccc(Cl)c(NC(=O)c3ccc(-c4ccccc4)cc3)c2)cc(OC)c1OC	–	–	130	–	70
CCOc1c(OC)cc(C(=O)NC(=S)Nc2cccc(NC(=O)c3ccccc3)c2)cc1OC	99%	–	600	–	–
COc1cc(C(=O)NC(=S)Nc2cccc(NC(=O)c3ccco3)c2)cc(OC)c1OC	53%	67	–	–	–
COc1cc(C(=O)NC(=S)Nc2cccc(-c3cn4ccsc4n3)c2)cc(OC)c1OC	92%	98	–	–	1100
COc1cc(C(=O)NC(=N)Nc2cccc(NC(=O)c3ccc(N4CCOCC4)cc3)c2)cc(OC)c1OC	–	–	200	–	220
COc1ccc(C(=O)NC(=S)Nc2cccc(NC(=O)c3ccccc3)c2)c(OC)c1	34%	–	4100	–	–
COc1cc(C(=O)NC(=S)Nc2cccc(-n3ccc4ccccc43)c2)cc(OC)c1OC	69%	92	–	–	–
COc1cc(C(=O)NC(=N)Nc2ccc(Cl)c(NC(=O)c3ccccc3)c2)cc(OC)c1OC	–	–	370	–	370
COc1cc(C(=O)NC(=N)Nc2cccc(NC(=O)c3ccc(-c4ccc(F)cc4)cc3)c2)cc(OC)c1OC	–	–	30	–	33
COc1cc(C(=O)NC(=N)Nc2ccc(C)c(NC(=O)c3ccc(-c4ccc(F)cc4)cc3)c2)cc(OC)c1OC	–	–	11	–	14
COc1cc(C(=O)NC(=S)Nc2cccc(NC(=O)c3ccc(N4CCOCC4)cc3)c2)cc(OC)c1OC	90%	55	–	–	–
COc1cc(C(=O)NC(=O)Nc2cccc(NC(=O)c3ccc(-c4ccccc4)cc3)c2C)cc(OC)c1OC	99%	104	–	26	–
COc1cc(C(=O)NC(=S)Nc2cccc(NC(=O)c3ccc(-c4ccccc4)cc3)c2C)cc(OC)c1OC	48%	7	–	9	–
COc1cc(C(=O)NC(=S)Nc2cccc(NC(=O)c3ccccc3Cl)c2)cc(OC)c1OC	66%	80	2500	–	–
COc1cc(C(=O)NC(=S)Nc2cccc(NC(=O)c3ccc(-c4ccc(F)cc4)cc3)c2)cc(OC)c1OC	97%	95	140	–	100
COc1cc(C(=O)NC(=S)Nc2ccc(Cl)c(C(=O)Nc3ccc(Cl)cc3)c2)cc(OC)c1OC	98%	96	–	7	–
COc1cc(C(=O)NC(=S)Nc2cccc(NC(=O)c3ccc(-c4ccccc4)cc3)c2)cc(OC)c1OC	89%	62	80	–	90
COc1cc(C(=O)NC(=S)Nc2ccc(Cl)c(C(=O)Nc3ccc(N(C)C)cc3)c2)cc(OC)c1OC	99%	98	–	4	–
COc1cc(C(=O)NC(=S)Nc2cccc(NC(=O)c3ccccc3)c2)cc2c1OCO2	92%	–	1100	–	–

SMILES	inhibition [1]	inhibition at 10 µM [2] [%]	IC50 [3] [nM]	inhibition [4] [%]	IC50 [5] [nM]
COc1cc(C(=O)NC(=S)Nc2cccc(NC(=O)Nc3ccccc3)c2)cc(OC)c1OC	78%	104	–	–	–
COc1cc(C(=O)NC(=S)Nc2ccc(C)c(NC(=O)c3ccc(Oc4ccccc4)cc3)c2)cc(OC)c1OC	97%	99	500	59	–
COc1cc(C(=O)NC(=N)Nc2ccc(C)c(C(=O)Nc3ccccc3)c2)cc(OC)c1OC	–	–	200	–	190
COc1cc(C(=O)NC(=S)Nc2ccc(F)c(NC(=O)c3ccccc3)c2)cc(OC)c1OC	98%	96	–	21	–
COc1ccccc1C(=O)Nc1cccc(NC(=S)NC(=O)c2cc(OC)c(OC)c(OC)c2)c1	49%	99	2000	–	–
COc1cc(C(=O)NC(=N)Nc2cccc(-n3ccc4ccccc43)c2)cc(OC)c1OC	–	–	390	–	900
COc1cc(C(=O)NC(=S)Nc2cccc(NC(=O)c3ccccc3)c2C)cc(OC)c1OC	54%	44	–	2	–
COc1cc(C(=O)NC(=O)Nc2cccc(NC(=O)c3ccc4ccccc4c3)c2)cc(OC)c1OC	3%	4	–	1	–
CCOc1cc(C(=O)NC(=O)Nc2cccc(NC(=O)c3ccccc3)c2)cc(OCC)c1OCC	24%	45	–	13	–
COc1cc(C(=O)NC(=S)Nc2cccc(NC(=O)c3ccncc3)c2)cc(OC)c1OC	67%	82	–	–	–
COc1cc(C(=O)NC(=S)Nc2ccc(C)c(NC(=O)c3cccc(-c4ccccc4)c3)c2)cc(OC)c1OC	100%	97	600	72	–
COc1cc(C(=O)NC(=S)Nc2cccc(-c3cc4ccccc4[nH]3)c2)cc(OC)c1OC	90%	102	280	–	180
COc1cc(C(=O)NC(=S)Nc2cccc(NC(=O)C3CCCCC3)c2)cc(OC)c1OC	14%	26	–	–	–
COc1cc(C(=O)NC(=S)Nc2cccc(-n3cnc4ccccc43)c2)cc(OC)c1OC	84%	60	–	–	–
COc1cc(C(=O)NC(=S)Nc2cccc(NC(=O)c3cc(OC)c(OC)c(OC)c3)c2)cc(OC)c1OC	37%	74	–	–	–
O=C(NC(=S)Nc1cccc(NC(=O)c2ccccc2)c1)c1ccc2c(c1)OCCO2	inactive	–	–	–	–
COc1cc(C(=O)NC(=S)Nc2cccc(NC(=O)c3ccc(Cl)cc3)c2)cc(OC)c1OC	99%	96	800	–	–
COc1cc(C(=O)NC(=S)Nc2cccc(NC(=O)c3ccc4ccccc4c3)c2)cc(OC)c1OC	24%	59	–	–	–
COc1ccc(NC(=O)c2cc(NC(=S)NC(=O)c3cc(OC)c(OC)c(OC)c3)ccc2Cl)cc1	100%	88	–	10	–
COc1cc(C(=O)NC(=S)Nc2cccc(NC(=O)c3cccc4ccccc34)c2)cc(OC)c1OC	64%	63	–	–	–

Reference: ChEMBL document CHEMBL2029339, “Acylthiourea, acylurea, and acylguanidine derivatives with potent hedgehog inhibiting activity” (J Med Chem, 2012)
